Laboratory results as given in patent US7338950B2, “Amide compounds as ion channel ligands and uses thereof” (Renovis, Inc., priority 2003, dated 2008).

test system: VR1 receptor (293 cells expressing capsaicin-insensitive VR1 receptor variants); experiment: High throughput screening of VR1 antagonists using a calcium imaging assay (Fura2, pH 5.1 stimulus); conditions: 1 uM compound; inhibition of calcium ion influx;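 further: Fura2 ratiometric fluorescence read every 4 s over 3 min, response taken as peak ratio minus baseline before pre-treatment, compound pre-treatment preceding acid challenge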
Text: A dual wavelength ratiometric dye, Fura2, was used as an indicator of relative levels of calcium ions in a 96 well format using a bench top scanning fluorometer with integrated fluidics and temperature control (Flex Station, Molecular Devices).
A dual wavelength ratiometric dye, Fura2, was used as an indicator of relative levels of [Ca2+] in a 96 well format using a bench top scanning fluorometer with integrated fluidics and temperature control (Flex Station, Molecular Devices).
293 cells were grown on PDL coated 96-well black-walled plates, in the presence of a DMEM medium containing 5% Penstrep, 5% Glutamax, 200 ug/mL Hygromycin, 5 μg/mL Blasticide and 10% heat inactivated FBS. Prior to assay, the cells were loaded with 5 μg/mL Fura2 in normal saline solution at 37° C. for 40 minutes. Cells were then washed with normal saline to remove the dye.
The assay consists of two stages; a pre-treatment phase followed by a treatment phase.
50 μl of a compound solution was added to the cells (Pre-treatment). Immediately following, 50 μl of the test compound in a saline solution at pH 5.1 was added. […] Changes in wavelength measurements were made throughout the course of the experiment in 4 second intervals over a period of 3 minutes. Responses were measured as peak fluorescence ratio after test compound addition minus baseline fluorescence ratio prior to pre-treatment and were calculated using SoftMaxPro softwareData were expressed as percentage inhibition calculated using Excel as follows:

Which “% Inhibition @ 1 uM” value does the source give for `CCN(CC)CCOC(=O)c1ccc(NC(=O)c2ccc(-c3ncccc3Cl)cc2)cc1` [Compound 1282] here?
The value was “+ (compound exhibited 0-25% inhibition of calcium ion influx induced by capsaicin stimulation)”.

With `COc1cc(C(=O)Nc2ccc(F)cc2[N+](=O)[O-])ccc1-c1ncccc1Cl` [Compound 1227] as the compound, how does the “% Inhibition @ 1 uM” value read?
Its value is “++++ (compound exhibited 75% or greater inhibition of calcium ion influx induced by capsaicin stimulation)”.

With `O=C(Nc1ccc(OC(F)(F)F)cc1)c1ccc(-c2ncccc2Cl)c(F)c1` [Compound 1192] as the compound, how does the “% Inhibition @ 1 uM” value read?
The value was “++ (compound exhibited 25-50% inhibition of calcium ion influx induced by capsaicin stimulation)”.

For `CCCCc1ccc(NC(=O)c2ccc(-c3ncccc3Cl)cc2)cc1` [Compound 1043], which “% Inhibition @ 1 uM” value is on record?
Its value is “++ (compound exhibited 25-50% inhibition of calcium ion influx induced by capsaicin stimulation)”.

`O=C(Nc1cccc(OC(F)(F)F)c1)c1ccc(-c2ncccc2Cl)c(F)c1` [Compound 1193] was tested. Which “% Inhibition @ 1 uM” value did it give?
Its value is “+ (compound exhibited 0-25% inhibition of calcium ion influx induced by capsaicin stimulation)”.

How did the “% Inhibition @ 1 uM” value turn out when `COc1cc(C(=O)Nc2cccc(Cl)c2Cl)ccc1-c1ncccc1Cl` [Compound 1216] was run?
The value was “++++ (compound exhibited 75% or greater inhibition of calcium ion influx induced by capsaicin stimulation)”.

How did the “% Inhibition @ 1 uM” value turn out when `O=C(Nc1ccc(Cl)c(C(F)(F)F)c1)c1ccc(-c2ncccc2Cl)cc1` [Compound 1037] was run?
The value was “+++ (compound exhibited 50-75% inhibition of calcium ion influx induced by capsaicin stimulation)”.

Which “% Inhibition @ 1 uM” value does the source give for `COc1cc(C(=O)Nc2ccnc(Cl)c2)ccc1-c1ncccc1Cl` [Compound 1248] here?
Its value is “+ (compound exhibited 0-25% inhibition of calcium ion influx induced by capsaicin stimulation)”.

Which “% Inhibition @ 1 uM” value does the source give for `COc1cc(C(=O)Nc2ccc(Cl)c(C(F)(F)F)c2)ccc1-c1ncccc1Cl` [Compound 1231] here?
Its value is “+ (compound exhibited 0-25% inhibition of calcium ion influx induced by capsaicin stimulation)”.

With `COc1ccc(NC(=O)c2ccc(-c3ncccc3Cl)c(F)c2)cc1O` [Compound 1187] as the compound, how does the “% Inhibition @ 1 uM” value read?
The value was “++ (compound exhibited 25-50% inhibition of calcium ion influx induced by capsaicin stimulation)”.

For `Cc1cc(C)nc(NC(=O)c2ccc(-c3ncccc3Cl)cn2)c1` [Compound 1329], which “% Inhibition @ 1 uM” value is on record?
The value was “+ (compound exhibited 0-25% inhibition of calcium ion influx induced by capsaicin stimulation)”.

Which “% Inhibition @ 1 uM” value does the source give for `O=C(Nc1ccc(N2CCOCC2)cc1)c1ccc(-c2ncccc2Cl)cc1` [Compound 1062] here?
The value was “+ (compound exhibited 0-25% inhibition of calcium ion influx induced by capsaicin stimulation)”.

For `O=C(Nc1ccc(F)cc1)c1ccc(-c2ncccc2Cl)cn1` [Compound 1308], which “% Inhibition @ 1 uM” value is on record?
Its value is “+ (compound exhibited 0-25% inhibition of calcium ion influx induced by capsaicin stimulation)”.

For `COc1ccc(NC(=O)c2ccc(-c3ncccc3Cl)c(OC)c2)cc1Cl` [Compound 1229], which “% Inhibition @ 1 uM” value is on record?
The value was “+++ (compound exhibited 50-75% inhibition of calcium ion influx induced by capsaicin stimulation)”.

Which “% Inhibition @ 1 uM” value does the source give for `O=C(Nc1cccc(Br)c1)c1ccc(-c2ncccc2Cl)cc1` [Compound 1038] here?
The value was “+ (compound exhibited 0-25% inhibition of calcium ion influx induced by capsaicin stimulation)”.

For `Cc1cc(NC(=O)c2ccc(-c3ncccc3Cl)cn2)nc(C)n1` [Compound 1343], which “% Inhibition @ 1 uM” value is on record?
Its value is “+ (compound exhibited 0-25% inhibition of calcium ion influx induced by capsaicin stimulation)”.

`CCCCc1ccc(NC(=O)c2ccc(-c3ncccc3Cl)c(OC)c2)cc1` [Compound 1221] was tested. Which “% Inhibition @ 1 uM” value did it give?
Its value is “++ (compound exhibited 25-50% inhibition of calcium ion influx induced by capsaicin stimulation)”.

`O=C(Nc1ccc(N2CCOCC2)c(Cl)c1)c1ccc(-c2ncccc2Cl)c(F)c1` [Compound 1200] was tested. Which “% Inhibition @ 1 uM” value did it give?
Its value is “++++ (compound exhibited 75% or greater inhibition of calcium ion influx induced by capsaicin stimulation)”.

For `CC(C)(C)NC(=O)c1ccc(-c2ncccc2Cl)c(F)c1` [Compound 1127], which “% Inhibition @ 1 uM” value is on record?
The value was “+ (compound exhibited 0-25% inhibition of calcium ion influx induced by capsaicin stimulation)”.

For `O=C(Nc1ccc(C(F)(F)F)cc1)c1ccc(-c2ncccc2Cl)cn1` [Compound 1325], which “% Inhibition @ 1 uM” value is on record?
The value was “+ (compound exhibited 0-25% inhibition of calcium ion influx induced by capsaicin stimulation)”.

`O=C(Nc1ccc(F)c(F)c1)c1ccc(-c2ncccc2Cl)cc1` [Compound 1296] was tested. Which “% Inhibition @ 1 uM” value did it give?
The value was “+ (compound exhibited 0-25% inhibition of calcium ion influx induced by capsaicin stimulation)”.

Which “% Inhibition @ 1 uM” value does the source give for `O=C(Nc1ccc([N+](=O)[O-])cc1)c1ccc(-c2ncccc2Cl)cc1` [Compound 1073] here?
Its value is “++++ (compound exhibited 75% or greater inhibition of calcium ion influx induced by capsaicin stimulation)”.

For `COc1ccc(NC(=O)c2ccc(-c3ncccc3Cl)c(OC)c2)cn1` [Compound 1247], which “% Inhibition @ 1 uM” value is on record?
Its value is “++ (compound exhibited 25-50% inhibition of calcium ion influx induced by capsaicin stimulation)”.

Which “% Inhibition @ 1 uM” value does the source give for `O=C(Nc1ccncc1)c1ccc(-c2ncccc2Cl)cc1F` [Compound 1079] here?
The value was “+ (compound exhibited 0-25% inhibition of calcium ion influx induced by capsaicin stimulation)”.

`COc1cc(C(=O)Nc2cccc(C(F)(F)F)c2)ccc1-c1ncccc1Cl` [Compound 1267] was tested. Which “% Inhibition @ 1 uM” value did it give?
Its value is “++ (compound exhibited 25-50% inhibition of calcium ion influx induced by capsaicin stimulation)”.

For `COc1cc(C(=O)Nc2ccc(-c3cnco3)cc2)ccc1-c1ncccc1Cl` [Compound 1277], which “% Inhibition @ 1 uM” value is on record?
Its value is “+++ (compound exhibited 50-75% inhibition of calcium ion influx induced by capsaicin stimulation)”.

How did the “% Inhibition @ 1 uM” value turn out when `COc1cc(C(=O)Nc2ccc3ncccc3c2)ccc1-c1ncccc1Cl` [Compound 1250] was run?
Its value is “++++ (compound exhibited 75% or greater inhibition of calcium ion influx induced by capsaicin stimulation)”.

With `O=C(Nc1ccc(Cl)cc1Cl)c1ccc(-c2ncccc2Cl)cc1` [Compound 1033] as the compound, how does the “% Inhibition @ 1 uM” value read?
Its value is “+ (compound exhibited 0-25% inhibition of calcium ion influx induced by capsaicin stimulation)”.

Which “% Inhibition @ 1 uM” value does the source give for `O=C(Nc1ccnc(Cl)c1)c1ccc(-c2ncccc2Cl)cn1` [Compound 1342] here?
Its value is “+ (compound exhibited 0-25% inhibition of calcium ion influx induced by capsaicin stimulation)”.

`COc1ccc(NC(=O)c2ccc(-c3ncccc3Cl)cc2)cn1` [Compound 1049] was tested. Which “% Inhibition @ 1 uM” value did it give?
The value was “+ (compound exhibited 0-25% inhibition of calcium ion influx induced by capsaicin stimulation)”.

With `COc1ccc(NC(=O)c2ccc(-c3ncccc3Cl)cc2F)cc1Cl` [Compound 1096] as the compound, how does the “% Inhibition @ 1 uM” value read?
Its value is “++ (compound exhibited 25-50% inhibition of calcium ion influx induced by capsaicin stimulation)”.

Which “% Inhibition @ 1 uM” value does the source give for `O=C(O)c1cccc(NC(=O)c2ccc(-c3ncccc3Cl)c(F)c2)c1` [Compound 1182] here?
Its value is “+ (compound exhibited 0-25% inhibition of calcium ion influx induced by capsaicin stimulation)”.

`O=C(Nc1cccnc1)c1ccc(-c2ncccc2Cl)cc1` [Compound 1025] was tested. Which “% Inhibition @ 1 uM” value did it give?
Its value is “++++ (compound exhibited 75% or greater inhibition of calcium ion influx induced by capsaicin stimulation)”.

How did the “% Inhibition @ 1 uM” value turn out when `CC(C)(NC(=O)c1ccc(-c2ncccc2Cl)cc1F)c1ccccc1` [Compound 1083] was run?
The value was “+ (compound exhibited 0-25% inhibition of calcium ion influx induced by capsaicin stimulation)”.

Which “% Inhibition @ 1 uM” value does the source give for `CCOc1cccc(NC(=O)c2ccc(-c3ncccc3Cl)cn2)c1` [Compound 1364] here?
The value was “++++ (compound exhibited 75% or greater inhibition of calcium ion influx induced by capsaicin stimulation)”.

Which “% Inhibition @ 1 uM” value does the source give for `O=C(Nc1ccc(N2CCOCC2)cc1)c1ccc(-c2ncccc2Cl)cn1` [Compound 1334] here?
Its value is “+ (compound exhibited 0-25% inhibition of calcium ion influx induced by capsaicin stimulation)”.

How did the “% Inhibition @ 1 uM” value turn out when `O=C(Nc1ccc2ncccc2c1)c1ccc(-c2ncccc2Cl)c(F)c1` [Compound 1173] was run?
The value was “++++ (compound exhibited 75% or greater inhibition of calcium ion influx induced by capsaicin stimulation)”.

Which “% Inhibition @ 1 uM” value does the source give for `O=C(Nc1ccccc1)c1ccc(-c2ncccc2Cl)cc1` [Compound 1020] here?
Its value is “+ (compound exhibited 0-25% inhibition of calcium ion influx induced by capsaicin stimulation)”.

How did the “% Inhibition @ 1 uM” value turn out when `O=C(Nc1ccc(OC(F)(F)F)cc1)c1ccc(-c2ncccc2Cl)cc1` [Compound 1293] was run?
The value was “+ (compound exhibited 0-25% inhibition of calcium ion influx induced by capsaicin stimulation)”.

For `N#Cc1ccccc1NC(=O)c1ccc(-c2ncccc2Cl)cn1` [Compound 1309], which “% Inhibition @ 1 uM” value is on record?
Its value is “+ (compound exhibited 0-25% inhibition of calcium ion influx induced by capsaicin stimulation)”.

For `COc1cccc(NC(=O)c2ccc(-c3ncccc3Cl)c(F)c2)c1` [Compound 1136], which “% Inhibition @ 1 uM” value is on record?
Its value is “+ (compound exhibited 0-25% inhibition of calcium ion influx induced by capsaicin stimulation)”.

Which “% Inhibition @ 1 uM” value does the source give for `COc1cc(C(=O)Nc2cccnc2)ccc1-c1ncccc1Cl` [Compound 1236] here?
Its value is “+ (compound exhibited 0-25% inhibition of calcium ion influx induced by capsaicin stimulation)”.

For `COc1cc(C(=O)Nc2cc(C)ccn2)ccc1-c1ncccc1Cl` [Compound 1240], which “% Inhibition @ 1 uM” value is on record?
The value was “++++ (compound exhibited 75% or greater inhibition of calcium ion influx induced by capsaicin stimulation)”.

For `O=C(Nc1ccc2ccccc2c1)c1ccc(-c2ncccc2Cl)cn1` [Compound 1348], which “% Inhibition @ 1 uM” value is on record?
Its value is “++ (compound exhibited 25-50% inhibition of calcium ion influx induced by capsaicin stimulation)”.

How did the “% Inhibition @ 1 uM” value turn out when `COc1cc(C(=O)Nc2ccncc2)ccc1-c1ncccc1Cl` [Compound 1235] was run?
Its value is “++++ (compound exhibited 75% or greater inhibition of calcium ion influx induced by capsaicin stimulation)”.

Which “% Inhibition @ 1 uM” value does the source give for `Cc1ccnc(NC(=O)c2ccc(-c3ncccc3Cl)cn2)c1` [Compound 1335] here?
The value was “+ (compound exhibited 0-25% inhibition of calcium ion influx induced by capsaicin stimulation)”.

`N#Cc1cccc(NC(=O)c2ccc(-c3ncccc3Cl)cn2)c1` [Compound 1316] was tested. Which “% Inhibition @ 1 uM” value did it give?
The value was “++++ (compound exhibited 75% or greater inhibition of calcium ion influx induced by capsaicin stimulation)”.

For `N#Cc1cccc(NC(=O)c2ccc(-c3ncccc3Cl)c(F)c2)c1` [Compound 1141], which “% Inhibition @ 1 uM” value is on record?
Its value is “++++ (compound exhibited 75% or greater inhibition of calcium ion influx induced by capsaicin stimulation)”.

For `Cc1cccnc1NC(=O)c1ccc(-c2ncccc2Cl)cc1F` [Compound 1112], which “% Inhibition @ 1 uM” value is on record?
Its value is “+ (compound exhibited 0-25% inhibition of calcium ion influx induced by capsaicin stimulation)”.

For `COc1ccc(NC(=O)c2ccc(-c3ncccc3Cl)c(F)c2)cn1` [Compound 1170], which “% Inhibition @ 1 uM” value is on record?
The value was “++ (compound exhibited 25-50% inhibition of calcium ion influx induced by capsaicin stimulation)”.

With `CC(C)Oc1cccc(NC(=O)c2ccc(-c3ncccc3Cl)cn2)c1` [Compound 1362] as the compound, how does the “% Inhibition @ 1 uM” value read?
The value was “+ (compound exhibited 0-25% inhibition of calcium ion influx induced by capsaicin stimulation)”.
